In brackets after ≈: the same amount, converted by molar mass.
How the values were obtained:
Format in all cases: functional
[1] = system: Escherichia coli; test: Antibacterial activity against wild type Escherichia coli DK/pKK3535
[2] = system: Escherichia coli; test: Antibacterial activity against Escherichia coli SQ171/2058G harboring ribosomal A2058G mutant
[3] = system: Escherichia coli; test: Antibacterial activity against Escherichia coli DK/2058G harboring ribosomal A2058G mutant
[4] = system: Staphylococcus aureus; test: Antibacterial activity against Staphylococcus aureus UCN14 harboring ribosomal […] mutant
[5] = system: Staphylococcus aureus; test: Antibacterial activity against Staphylococcus aureus ATCC 33591 harboring ermA mutant

Row | Structure (SMILES) | MIC [1] | MIC [2] | MIC [3] | MIC [4] | MIC [5]
1 | CC[C@H]1OC(=O)[C@H](C)C(=O)C[C@@H](O[C@@H]2O[C@H](C)C[C@H](N(C)C)[C@H]2O)[C@@](C)(OC)CCC(=O)C[C@@H]2N(CCCCn3cnc(-c4cccnc4)c3)C(=O)O[C@@]21C | 32 µg/mL (≈ 41.6 µM) | – | – | – | –
2 | CC[C@H]1OC(=O)[C@H](C)C(=O)[C@H](C)[C@@H](O[C@@H]2O[C@H](C)C[C@H](N(C)C)[C@H]2O)[C@](C)(OC)C[C@@H](C)C(=O)[C@H](C)[C@H]2N(CCCCn3cnc(-c4cccnc4)c3)C(=O)O[C@]12C [TELITHROMYCIN] | 0.5 µg/mL (≈ 0.616 µM) | > 512 µg/mL | 1 µg/mL (≈ 1.23 µM) | > 256 µg/mL | > 128 µg/mL

Reference: ChEMBL document CHEMBL1649101, “Desmethyl Macrolide Analogues to Address Antibiotic Resistance: Total Synthesis and Biological Evaluation of 4,8,10-Tridesmethyl Telithromycin” (2011)
